From patent US12414915B2, “Liquid naloxone spray” (HIKMA PHARMACEUTICALS USA INC., priority 2023, dated 2025)
Read-outs that look alike come from different tables or passages of the source.

Assay: Phase I five-way crossover: intranasal and sublingual naloxone spray 8 mg and 16 mg versus 0.4 mg intramuscular, plasma concentrations
Type: in vivo, human subjects
Conditions: for concentration at 0.03 h / concentration at 0.07 h / concentration at 0.1 h / concentration at 0.13 h / concentration at 0.17 h / concentration at 0.5 h / concentration at 1 h / concentration at […] / Cmax / AUC: human, plasma; for concentration at 0.03 h / concentration at 0.07 h / concentration at 0.1 h / concentration at 0.13 h / concentration at 0.17 h / concentration at 0.5 h / concentration at 1 h / concentration at […]: mean ± SD; for concentration at […]: read-out: Conc. @ 0.25 h; for AUC: time-zero to 1 hour post dose
Protocol: 145 subjects were randomly assigned to one of five groups including 8 milligrams sublingual dose, 16 milligrams sublingual dose, 8 milligrams intranasal dose, 16 milligrams intranasal dose and 0.4 milligram naloxone dose. Plasma concentrations were taken at pre-dose, 0.03, 0.07, 0.1, 0.13, 0.17, 0.25, 0.5, 1, 2 4, 8 and 12 hours' post-dose.

Q: What does the source list for `C=CCN1CC[C@]23c4c5ccc(O)c4O[C@H]2C(=O)CC[C@@]3(O)[C@H]1C5` [naloxone, Naloxone]?
A: mean plasma concentration, 16 mg intranasal compared with 16 mg sublingual (2 and 4 hours post-dose): significantly lower; plasma concentration, intranasal compared with sublingual administration (all time points up to 1 hour after administration): significantly greater plasma concentration; concentration at 0.03 h (intramuscular, 0.4 mg IM): 0.15 ± 0.29 ng/mL; concentration at 0.07 h (intramuscular, 0.4 mg IM): 0.36 ± 0.38 ng/mL; concentration at 0.1 h (intramuscular, 0.4 mg IM): 0.51 ± 0.41 ng/mL; concentration at 0.13 h (intramuscular, 0.4 mg IM): 0.58 ± 0.39 ng/mL; concentration at 0.17 h (intramuscular, 0.4 mg IM): 0.63 ± 0.36 ng/mL; concentration at 0.5 h (intramuscular, 0.4 mg IM): 0.62 ± 0.22 ng/mL; concentration at 1 h (intramuscular, 0.4 mg IM): 0.51 ± 0.16 ng/mL; concentration at […] (intramuscular, 0.4 mg IM): 0.69 ± 0.4 ng/mL; concentration at 0.03 h (other: intranasal, 8 mg IN): 6.19 ± 14.5 ng/mL; concentration at 0.07 h (other: intranasal, 8 mg IN): 13.9 ± 19.1 ng/mL; concentration at 0.1 h (other: intranasal, 8 mg IN): 18.8 ± 15.6 ng/mL; concentration at 0.13 h (other: intranasal, 8 mg IN): 20.5 ± 13.1 ng/mL; concentration at 0.17 h (other: intranasal, 8 mg IN): 20 ± 10.7 ng/mL; concentration at 0.5 h (other: intranasal, 8 mg IN): 9.88 ± 4.42 ng/mL; concentration at 1 h (other: intranasal, 8 mg IN): 6.29 ± 2.7 ng/mL; concentration at […] (other: intranasal, 8 mg IN): 16.5 ± 6.71 ng/mL; concentration at 0.03 h (other: intranasal, 16 mg IN): 9.29 ± 14.3 ng/mL; concentration at 0.07 h (other: intranasal, 16 mg IN): 29.7 ± 28 ng/mL; concentration at 0.1 h (other: intranasal, 16 mg IN): 46.3 ± 36.6 ng/mL; concentration at 0.13 h (other: intranasal, 16 mg IN): 49.3 ± 34 ng/mL; concentration at 0.17 h (other: intranasal, 16 mg IN): 45.8 ± 24.6 ng/mL; concentration at 0.5 h (other: intranasal, 16 mg IN): 22.4 ± 8.19 ng/mL; concentration at 1 h (other: intranasal, 16 mg IN): 14.1 ± 5.61 ng/mL; concentration at […] (other: intranasal, 16 mg IN): 35 ± 13.2 ng/mL; concentration at 0.03 h (other: sublingual, 8 mg SL): 0.18 ± 0.29 ng/mL; concentration at 0.07 h (other: sublingual, 8 mg SL): 0.62 ± 0.96 ng/mL; concentration at 0.1 h (other: sublingual, 8 mg SL): 0.88 ± 0.94 ng/mL; concentration at 0.13 h (other: sublingual, 8 mg SL): 1.17 ± 1.13 ng/mL; concentration at 0.17 h (other: sublingual, 8 mg SL): 1.54 ± 1.1 ng/mL; concentration at 0.5 h (other: sublingual, 8 mg SL): 2.03 ± 1.28 ng/mL; concentration at 1 h (other: sublingual, 8 mg SL): 1.61 ± 0.85 ng/mL; concentration at […] (other: sublingual, 8 mg SL): 1.98 ± 1.29 ng/mL; concentration at 0.03 h (other: sublingual, 16 mg SL): 0.52 ± 0.8 ng/mL; concentration at 0.07 h (other: sublingual, 16 mg SL): 1.69 ± 1.85 ng/mL; concentration at 0.1 h (other: sublingual, 16 mg SL): 2.31 ± 2.08 ng/mL; concentration at 0.13 h (other: sublingual, 16 mg SL): 3.16 ± 3.39 ng/mL; concentration at 0.17 h (other: sublingual, 16 mg SL): 3.63 ± 3.83 ng/mL; concentration at 0.5 h (other: sublingual, 16 mg SL): 3.94 ± 2.96 ng/mL; concentration at 1 h (other: sublingual, 16 mg SL): 2.96 ± 1.66 ng/mL; concentration at […] (other: sublingual, 16 mg SL): 4.39 ± 4.24 ng/mL; Cmax (other: intranasal, 8 mg IN): 20.5 ng/mL; AUC (other: intranasal, 8 mg IN): 11.2 ng·h/mL; Cmax (other: intranasal, 16 mg IN): 49.3 ng/mL; AUC (other: intranasal, 16 mg IN): 24.9 ng·h/mL; Cmax (other: sublingual, 8 mg SL): 2.03 ng/mL; AUC (other: sublingual, 8 mg SL): 1.68 ng·h/mL; Cmax (other: sublingual, 16 mg SL): 4.39 ng/mL; AUC (other: sublingual, 16 mg SL): 3.42 ng·h/mL; Cmax (0.4 mg IM): 0.69 ng/mL; AUC (0.4 mg IM): 0.57 ng·h/mL; plasma concentration compared with 0.4 mg intramuscular administration (intranasal or sublingual, 8 mg or 16 mg, all time points up to 1 hour, fasted): significantly greater plasma concentrations
